Experimental findings from patent US7517874B2 (priority 2007, dated 2009) are described below.

For experiment [1], the target named is human CB1 receptor (hCB1) (Homo sapiens, UniProt P21554). Nature of the experiment: cell-based. In kind it is cell-based. The essentials: (§1)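 Agonism or inverse agonism was assessed as change in intracellular cAMP in CHO-K1 cells expressing human CB1 or rat CB2 (genomic DNA, pcDNA3.1).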
Another experiment deals with T1, rat CB2 receptor (rCB2) (Rattus norvegicus, UniProt Q9QZN9).
T1 sequence (Q9QZN9 1-360): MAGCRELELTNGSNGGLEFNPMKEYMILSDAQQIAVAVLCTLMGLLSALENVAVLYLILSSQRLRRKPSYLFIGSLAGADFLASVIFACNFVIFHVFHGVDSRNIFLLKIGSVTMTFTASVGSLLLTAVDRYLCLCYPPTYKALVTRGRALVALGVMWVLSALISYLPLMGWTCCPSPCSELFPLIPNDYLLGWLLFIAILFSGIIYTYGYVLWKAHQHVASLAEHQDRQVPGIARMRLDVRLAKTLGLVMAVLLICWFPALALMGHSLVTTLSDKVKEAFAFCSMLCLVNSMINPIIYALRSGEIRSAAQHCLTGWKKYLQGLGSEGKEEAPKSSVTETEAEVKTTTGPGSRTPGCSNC
The experiment can be described thus: cell-based. Particulars: for +/− RCB2: agonist or inverse agonist at rCB2. It counts as cell-based. The essentials:
as §1

Structures are written as SMILES. Like-named read-outs stand apart in the source and are kept apart here. Some results are limits rather than exact numbers.

Sequence of human CB1 receptor (hCB1) (P21554 whole entry): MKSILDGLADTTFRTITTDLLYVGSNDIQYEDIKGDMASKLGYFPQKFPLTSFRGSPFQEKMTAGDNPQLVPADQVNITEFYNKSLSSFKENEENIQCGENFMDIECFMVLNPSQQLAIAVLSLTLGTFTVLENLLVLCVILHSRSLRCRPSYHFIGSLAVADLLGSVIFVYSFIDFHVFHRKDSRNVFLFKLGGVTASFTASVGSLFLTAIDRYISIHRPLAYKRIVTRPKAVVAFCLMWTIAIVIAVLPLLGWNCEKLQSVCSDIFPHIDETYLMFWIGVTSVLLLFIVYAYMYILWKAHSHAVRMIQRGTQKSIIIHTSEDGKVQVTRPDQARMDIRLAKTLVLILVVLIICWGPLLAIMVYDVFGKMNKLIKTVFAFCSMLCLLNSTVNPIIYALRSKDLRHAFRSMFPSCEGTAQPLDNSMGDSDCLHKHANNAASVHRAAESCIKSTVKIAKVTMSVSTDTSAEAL

Consider `CNC(=O)[C@@H](NC(=O)c1nc(-c2cc(F)cc(OC)c2)n2c1CN(C)CCC2)C(C)(C)C` [Compound 384, (S)-N-(3,3-dimethyl-1-(methylamino)-1-oxobutan-2-yl)-3-(3-fluoro-5-methoxyphenyl)-8-methyl-6,7,8,9-tetrahydro-5H-imidazo[1,5-a][1,4]diazepine-1-carboxamide], for which the EC50 in experiment [1] is > 10000 nM. The “+/− RCB2” value on rat CB2 receptor (rCB2) is “−”.

Consider `CNC(=O)[C@@H](NC(=O)c1nc(-c2cccc(S(=O)(=O)N3CCCC3)c2)n2c1CN(C)CCC2)C(C)(C)C` [Compound 385, (S)-N-(3,3-dimethyl-1-(methylamino)-1-oxobutan-2-yl)-8-methyl-3-(3-(pyrrolidin-1-ylsulfonyl)phenyl)-6,7,8,9-tetrahydro-5H-imidazo[1,5-a][1,4]diazepine-1-carboxamide], for which the EC50 (in experiment [1]; at rat CB2 receptor (rCB2)) was > 10000 nM each time.

With `CNC(=O)[C@@H](NC(=O)c1nc(-c2cccc(C(=O)N3CCOCC3)c2)n2c1CN(C)CCC2)C(C)(C)C` [Compound 386, (S)-N-(3,3-dimethyl-1-(methylamino)-1-oxobutan-2-yl)-8-methyl-3-(3-(morpholine-4-carbonyl)phenyl)-6,7,8,9-tetrahydro-5H-imidazo[1,5-a][1,4]diazepine-1-carboxamide], the EC50 (in experiment [1]; at rat CB2 receptor (rCB2)) was > 10000 nM in each case.

`CNC(=O)[C@@H](NC(=O)c1nc(-c2ccc(C(=O)OC)cc2F)n2c1CN(C)CCC2)C(C)(C)C` [Compound 387, (S)-methyl 4-(1-(3,3-dimethyl-1-(methylamino)-1-oxobutan-2-ylcarbamoyl)-8-methyl-6,7,8,9-tetrahydro-5H-imidazo[1,5-a][1,4]diazepin-3-yl)-3-fluorobenzoate]: the concentration for a half-maximal effect (EC50) (in experiment [1]; at rat CB2 receptor (rCB2)) was > 10000 nM throughout.

For the molecule `CNC(=O)[C@@H](NC(=O)c1nc(C2=CCN(C(=O)OC(C)(C)C)CC2)n2c1CN(C)CCC2)C(C)(C)C` [Compound 388, (S)-tert-butyl 4-(1-(3,3-dimethyl-1-(methylamino)-1-oxobutan-2-ylcarbamoyl)-8-methyl-6,7,8,9-tetrahydro-5H-imidazo[1,5-a][1,4]diazepin-3-yl)-5,6-dihydropyridine-1(2H)-carboxylate], the EC50 (in experiment [1]; on rat CB2 receptor (rCB2)) was > 10000 nM in each case.

`CNC(=O)[C@@H](NC(=O)c1nc(-c2ccc(F)c(C(=O)N3CCOCC3)c2)n2c1CN(C)CCC2)C(C)(C)C` [Compound 389, (S)-N-(3,3-dimethyl-1-(methylamino)-1-oxobutan-2-yl)-3-(4-fluoro-3-(morpholine-4-carbonyl)phenyl)-8-methyl-6,7,8,9-tetrahydro-5H-imidazo[1,5-a][1,4]diazepine-1-carboxamide]: the EC50 (in experiment [1]; on rat CB2 receptor (rCB2)) was > 10000 nM in each case.

Consider `CNC(=O)[C@@H](NC(=O)c1nc(-c2ccc(-n3cccn3)cc2)n2c1CN(C)CCC2)C(C)(C)C` [Compound 390, (S)-3-(4-(1H-pyrazol-1-yl)phenyl)-N-(3,3-dimethyl-1-(methylamino)-1-oxobutan-2-yl)-8-methyl-6,7,8,9-tetrahydro-5H-imidazo[1,5-a][1,4]diazepine-1-carboxamide], for which the EC50 in experiment [1] was > 10000 nM. Besides, the “+/− RCB2” value at rat CB2 receptor (rCB2) is on record as “−”.

As to `CNC(=O)c1cccc(-c2nc(C(=O)N[C@H](C(=O)NC)C(C)(C)C)c3n2CCCN(C)C3)c1` [Compound 391, (S)-N-(3,3-dimethyl-1-(methylamino)-1-oxobutan-2-yl)-8-methyl-3-(3-(methylcarbamoyl)phenyl)-6,7,8,9-tetrahydro-5H-imidazo[1,5-a][1,4]diazepine-1-carboxamide], the EC50 (in experiment [1]; at rat CB2 receptor (rCB2)) was > 10000 nM in each case.

Turning to `CNC(=O)[C@@H](NC(=O)c1nc(-c2ccc(C(=O)N3CCN(C)CC3)cc2)n2c1CN(C)CCC2)C(C)(C)C` [Compound 392, (S)-N-(3,3-dimethyl-1-(methylamino)-1-oxobutan-2-yl)-8-methyl-3-(4-(4-methylpiperazin-1-carbonyl)phenyl)-6,7,8,9-tetrahydro-5H-imidazo[1,5-a][1,4]diazepine-1-carboxamide], the concentration for a half-maximal effect (EC50) was > 10000 nM in experiment [1] (groups >100 nM-10 μM and >10 μM, cAMP, CHO-K1 hCB1, read-out: EC50 HCB1); > 10000 nM at rat CB2 receptor (rCB2) (groups >100 nM-10 μM and >10 μM, cAMP, CHO-K1 rCB2, read-out: EC50 RCB2).

As for `CNC(=O)[C@@H](NC(=O)c1nc(-c2ccc(F)c(OC)c2)n2c1CN(C)CCC2)C(C)(C)C` [Compound 393, (S)-N-(3,3-dimethyl-1-(methylamino)-1-oxobutan-2-yl)-3-(4-fluoro-3-methoxyphenyl)-8-methyl-6,7,8,9-tetrahydro-5H-imidazo[1,5-a][1,4]diazepine-1-carboxamide], in experiment [1], the EC50 is > 10000 nM. Besides, the “+/− RCB2” value at rat CB2 receptor (rCB2) was “+”.

In the case of `CNC(=O)[C@@H](NC(=O)c1nc(-c2ccc(C(=O)N(C)C)cc2)n2c1CN(C)CCC2)C(C)(C)C` [Compound 394, (S)-N-(3,3-dimethyl-1-(methylamino)-1-oxobutan-2-yl)-3-(4-(dimethylcarbamoyl)phenyl)-8-methyl-6,7,8,9-tetrahydro-5H-imidazo[1,5-a][1,4]diazepine-1-carboxamide], the EC50 in experiment [1] is > 10000 nM. The “+/− RCB2” value on rat CB2 receptor (rCB2) was “−”.

Consider `CNC(=O)[C@@H](NC(=O)c1nc(-c2ccccn2)n2c1CN(C)CCC2)C(C)(C)C` [Compound 395, (S)-N-(3,3-dimethyl-1-(methylamino)-1-oxobutan-2-yl)-8-methyl-3-(pyridin-2-yl)-6,7,8,9-tetrahydro-5H-imidazo[1,5-a][1,4]diazepine-1-carboxamide], for which, in experiment [1], the 50% effective concentration (EC50) was > 10000 nM. In addition, the “+/− RCB2” value at rat CB2 receptor (rCB2) was “+”.

Consider `CNC(=O)[C@@H](NC(=O)c1nc(C2=CCCCC2)n2c1CN(C)CCC2)C(C)(C)C` [Compound 396, (S)-3-cyclohexenyl-N-(3,3-dimethyl-1-(methylamino)-1-oxobutan-2-yl)-8-methyl-6,7,8,9-tetrahydro-5H-imidazo[1,5-a][1,4]diazepine-1-carboxamide], for which the EC50 in experiment [1] is > 10000 nM. The “+/− RCB2” value at rat CB2 receptor (rCB2) is “+”.

For `CNC(=O)[C@@H](NC(=O)c1nc(/C=C/C(C)(C)C)n2c1CN(C)CCC2)C(C)(C)C` [Compound 397, (S,E)-N-(3,3-dimethyl-1-(methylamino)-1-oxobutan-2-yl)-3-(3,3-dimethylbut-1-enyl)-8-methyl-6,7,8,9-tetrahydro-5H-imidazo[1,5-a][1,4]diazepine-1-carboxamide], the “+/− HCB1” value in experiment [1] (agonist or inverse agonist at hCB1) is given as “+”. Moreover, on rat CB2 receptor (rCB2), the “+/− RCB2” value is given as “+”.

In the case of `CNC(=O)[C@@H](NC(=O)c1nc(/C=C/COC)n2c1CN(C)CCC2)C(C)(C)C` [Compound 398, (S,E)-N-(3,3-dimethyl-1-(methylamino)-1-oxobutan-2-yl)-3-(3-methoxyprop-1-enyl)-8-methyl-6,7,8,9-tetrahydro-5H-imidazo[1,5-a][1,4]diazepine-1-carboxamide], in experiment [1], the EC50 was > 10000 nM. The “+/− RCB2” value on rat CB2 receptor (rCB2) is “+”.

`CNC(=O)[C@@H](NC(=O)c1nc(-c2ccccc2C(F)(F)F)n2c1CN(C)CCC2)C(C)(C)C` [Compound 399, (S)-N-(3,3-dimethyl-1-(methylamino)-1-oxobutan-2-yl)-8-methyl-3-(2-(trifluoromethyl)phenyl)-6,7,8,9-tetrahydro-5H-imidazo[1,5-a][1,4]diazepine-1-carboxamide]: the concentration for a half-maximal effect (EC50) in experiment [1] was > 10000 nM. Also, the “+/− RCB2” value at rat CB2 receptor (rCB2) is listed as “+”.

For the molecule `CCCC/C=C/c1nc(C(=O)N[C@H](C(=O)NC)C(C)(C)C)c2n1CCCN(C)C2` [Compound 400, (S,E)-N-(3,3-dimethyl-1-(methylamino)-1-oxobutan-2-yl)-3-(hex-1-enyl)-8-methyl-6,7,8,9-tetrahydro-5H-imidazo[1,5-a][1,4]diazepine-1-carboxamide], the EC50 in experiment [1] was > 10000 nM. In addition, the “+/− RCB2” value on rat CB2 receptor (rCB2) is on record as “+”.

In the case of `CNC(=O)[C@@H](NC(=O)c1nc(-c2ccc(C(=O)N3CCOCC3)cc2)n2c1CN(C)CCC2)C(C)(C)C` [Compound 401, (S)-N-(3,3-dimethyl-1-(methylamino)-1-oxobutan-2-yl)-8-methyl-3-(4-(morpholine-4-carbonyl)phenyl)-6,7,8,9-tetrahydro-5H-imidazo[1,5-a][1,4]diazepine-1-carboxamide], the EC50 (in experiment [1]; at rat CB2 receptor (rCB2)) was > 10000 nM in each case.

Consider `CNC(=O)[C@@H](NC(=O)c1nc(-c2ccncc2)n2c1CN(C)CCC2)C(C)(C)C` [Compound 402, (S)-N-(3,3-dimethyl-1-(methylamino)-1-oxobutan-2-yl)-8-methyl-3-(pyridin-4-yl)-6,7,8,9-tetrahydro-5H-imidazo[1,5-a][1,4]diazepine-1-carboxamide], for which, in experiment [1], the EC50 is > 10000 nM. The “+/− RCB2” value at rat CB2 receptor (rCB2) is reported as “+”.

Take `CNC(=O)[C@@H](NC(=O)c1nc(-c2ccccc2C(C)C)n2c1CN(C)CCC2)C(C)(C)C` [Compound 403, (S)-N-(3,3-dimethyl-1-(methylamino)-1-oxobutan-2-yl)-3-(2-isopropylphenyl)-8-methyl-6,7,8,9-tetrahydro-5H-imidazo[1,5-a][1,4]diazepine-1-carboxamide]: the 50% effective concentration (EC50) in experiment [1] was > 10000 nM. Also, the “+/− RCB2” value at rat CB2 receptor (rCB2) was “+”.

Take `CNC(=O)[C@@H](NC(=O)c1nc(-c2ccc(OC)c(F)c2)n2c1CN(C)CCC2)C(C)(C)C` [Compound 404, (S)-N-(3,3-dimethyl-1-(methylamino)-1-oxobutan-2-yl)-3-(3-fluoro-4-methoxyphenyl)-8-methyl-6,7,8,9-tetrahydro-5H-imidazo[1,5-a][1,4]diazepine-1-carboxamide]: the EC50 (in experiment [1]; on rat CB2 receptor (rCB2)) was > 10000 nM throughout.

By EC50 is commonly meant the concentration giving half of the maximal effect.
